# Read-outs that look alike come from different tables or passages of the source.
# Legend:
# [1] = in vivo
# [2] = dog, in vivo
# [3] = test system: liver microsomes from 13 different species; assay: Isoflavone glucuronidation by liver microsomes from 13 different species; assay type: in vitro ADME, 13 species
# [4] = Isoflavone glucuronidation assay, dog liver microsomes; assay type: in vitro ADME; details: mixed-breed, dog, pH 7.5
# dog liver microsomes = assay: as above; assay type: in vitro ADME; details: pooled dog liver microsomes (n=16)
# [5] = Isoflavone glucuronidation assay, cat liver microsomes; assay type: in vitro ADME; details: domestic short-hair, cat, pH 7.5
# cat liver microsomes [6] = assay: as above; assay type: in vitro ADME; details: for Vmax, 7-OH-glucuronidation: pooled cat liver microsomes (n=5); for Rank of cat liver glucuronidation rate among species: pooled liver microsomes, 35 µM substrate, 13 species compared
# [7] = for Urinary concentration, Unconjugated: without enzyme treatment, normalized to creatinine
# [8] = Isoflavone glucuronidation assay, human liver microsomes; assay type: in vitro ADME; details: human, pH 7.5
# human liver microsomes = assay: as above; assay type: in vitro ADME; details: pooled human liver microsomes (n=48)
# [9] = for % Glucuronides: percentage of free and conjugated isoflavones that are glucuronide; for Urinary concentration, Unconjugated: without enzyme treatment, normalized to creatinine
# ferret liver microsomes = assay: Estradiol glucuronidation assay, ferret liver microsomes; assay type: in vitro ADME; details: ferret livers, 100 µM substrate
# cat liver microsomes [10] = assay: Estradiol glucuronidation assay, cat liver microsomes; assay type: in vitro ADME; details: cat livers, 100 µM substrate
# [11] = test system: mongoose liver microsomes; assay: Estradiol glucuronidation assay, mongoose liver microsomes; assay type: in vitro ADME; details: mongoose livers, 100 µM substrate
# [12] = pooled liver microsomes, 35 µM substrate
smiles,measurement,setting,value
CC(C(=O)c1c(O)cc(O)cc1O)c1ccc(O)cc1 (stereo not drawn) [6-hydroxy-O-desmethylangolensin],Detection of metabolite in urine,[1],not detected
same,Detection of metabolite in urine,[2],not detected
"Oc1ccc([C@H]2COc3cc(O)ccc3C2)cc1 [Equol, equol]","4'-OH-glucuronidation, detection",[3]; [12],not detected in any of the species evaluated
same,"7-OH-glucuronidation, detection",[3]; [12],detected in all species livers’ evaluated except for glucuronidation of equol by mongoose liver
same,Km,[4]; pooled dog liver microsomes,32.6 ± 6.9 µM
same,"Vmax, 7-OH-glucuronidation",dog liver microsomes,14.3 ± 0.6 nmoles/min/mg protein
same,Km,[5]; pooled cat liver microsomes,132 ± 26 µM
same,"Vmax, 7-OH-glucuronidation",cat liver microsomes [6],20.4 ± 1.4 nmoles/min/mg protein
same,Rank of cat liver glucuronidation rate among species,cat liver microsomes [6],within the lowest three out of 13 species
same,Equol to daidzein ratio,[7]; individual dog urine samples with detectable equol (three of ten),0.004–0.017
same,"Urinary concentration, Unconjugated","[7]; pooled dog urine (n=10), mean",0 pmoles / mg creatinine
same,Km,[8]; pooled human liver microsomes,31.8 ± 5.1 µM
same,"Vmax, 7-OH-glucuronidation",human liver microsomes,17.4 ± 0.7 nmoles/min/mg protein
Oc1ccc(C2=Cc3ccc(O)cc3OC2)cc1 [dehydroequol],Detection of metabolite in urine,"[9]; cat urine, before or after treatment with deconjugation enzymes",not detected
same,Detection of metabolite in urine,"[7]; dog urine, before or after treatment with deconjugation enzymes",not detected
"O=C1c2c(O)cc(O)cc2OCC1c1ccc(O)cc1 (stereo not drawn) [Dihydrogenistein, dihydrogenistein]","Urinary concentration, Glucuronides","[9]; pooled cat urine (n=18), after bovine liver β-glucuronidase treatment, mean",0 pmoles / mg creatinine
same,% Glucuronides,[9]; pooled cat urine (n=18),0%
same,% Glucuronides,"[9]; pooled cat urine (n=18), listed as dihydrogenistein",undetectable
same,"Urinary concentration, Total","[9]; pooled cat urine (n=18), sum of free and conjugated concentrations, mean",2998 pmoles / mg creatinine
same,"Urinary concentration, Unconjugated","[9]; pooled cat urine (n=18), mean",0 pmoles / mg creatinine
same,"Urinary concentration, Glucuronides","[7]; pooled dog urine (n=10), after bovine liver β-glucuronidase treatment, mean",631 pmoles / mg creatinine
same,% Glucuronides,"[7]; pooled dog urine (n=10), percentage of free and conjugated isoflavones that are glucuronide",33%
same,"Urinary concentration, Total","[7]; pooled dog urine (n=10), sum of free and conjugated concentrations, mean",1919 pmoles / mg creatinine
same,"Urinary concentration, Unconjugated","[7]; pooled dog urine (n=10), mean",0 pmoles / mg creatinine
CC(C(=O)c1ccc(O)cc1O)c1ccc(O)cc1 (stereo not drawn) [O-desmethylangolensin],Detection of metabolite in urine,[1],not detected
same,Detection of metabolite in urine,[2],not detected
"C[C@]12CC[C@@H]3c4ccc(O)cc4CC[C@H]3[C@@H]1CC[C@@H]2O [estradiol, β-estradiol]",Rank of estradiol glucuronidation among 13 species,ferret liver microsomes,third lowest
same,Rank of estradiol glucuronidation among 13 species,cat liver microsomes [10],sixth lowest
same,Rank of estradiol glucuronidation among 13 species,[11],fifth
"O=c1c(-c2ccc(O)cc2)coc2cc(O)ccc12 [Daidzein, daidzein]","4'-OH-glucuronidation, detection","[3]; 35 µM, pH 7.5",could not be measured in five of the 13 species
same,Km,[4]; pooled dog liver microsomes,55.4 ± 3.8 µM
same,"Vmax, 7-OH-glucuronidation",dog liver microsomes,8.10 ± 0.1 nmoles/min/mg protein
same,Km,[5]; pooled cat liver microsomes,41.9 ± 6.6 µM
same,"Vmax, 7-OH-glucuronidation",cat liver microsomes [6],1.61 ± 0.06 nmoles/min/mg protein
same,Rank of cat liver glucuronidation rate among species,cat liver microsomes [6],within the lowest three out of 13 species
same,Km,[8]; pooled human liver microsomes,26.6 ± 5.1 µM
same,"Vmax, 7-OH-glucuronidation",human liver microsomes,1.30 ± 0.05 nmoles/min/mg protein
"O=c1c(-c2ccc(O)cc2)coc2cc(O)cc(O)c12 [Genistein, genistein]","Urinary concentration, Unconjugated","[9]; pooled cat urine (n=18), mean",29 pmoles / mg creatinine
same,Glucuronidation at the 5-OH position,[3]; search for additional HPLC peaks with the same mass spectrum,no evidence for glucuronidation at that site
same,Km,[4],15.3 ± 2.4 µM
same,"Vmax, 7-OH-glucuronidation",dog liver microsomes,5.13 ± 0.2 nmoles/min/mg protein
same,Km,[5],10.3 ± 2.5 µM
same,"Vmax, 7-OH-glucuronidation",cat liver microsomes [6],2.15 ± 0.1 nmoles/min/mg protein
same,Rank of cat liver glucuronidation rate among species,cat liver microsomes [6],within the lowest three out of 13 species
same,"Urinary concentration, Unconjugated","[7]; pooled dog urine (n=10), mean",31 pmoles / mg creatinine
same,Km,[8],11.7 ± 2.4 µM
same,"Vmax, 7-OH-glucuronidation",human liver microsomes,1.60 ± 0.07 nmoles/min/mg protein
"COc1cc2c(=O)c(-c3ccc(O)cc3)coc2cc1O [Glycitein, glycitein]","Urinary concentration, Unconjugated","[7]; pooled dog urine (n=10), mean",9 pmoles / mg creatinine

# Reference: article PMC4967369 (Xenobiotica; the fate of foreign compounds in biological …, 2015)
